Reference: patent EP4177246A1, “FUSED OXAZEPINES AS INHIBITORS OF PEROXIREDOXINS” (Centro Atlántico del Medicamento, SA, priority 2021, dated 2023)

Assays:
[1] = test system: PANC-1; assay: MTT cell viability assay, PANC-1 cells; format: cell-based; conditions: Homo sapiens, 48 h drug exposure
Method: PANC-1 [American Type Culture Collection (ATCC) reference number CRL-1469]. This a human cancer cell line derived from the pancreas of a person.
(§1) Cell viability was assayed by measuring the mitochondrial reduction of the tetrazolium salt 3-(4,5-methyltiazol-2yl)-2,5diphenyl-tetrazolium bromide] (MTT) (Applichen; A2231,0010) [Mosmann T. J Immunol Methods. 1983 16;65(1-2):55-63 (ref. 36); Chuan Y-C et al 2010. Oncogene. 29 (10), 1531-1542 (ref. 37)]. Cells were seeded in 96-well plates in medium (either RPMI, DMEM or McCoys depending on the recommendations from the ATCC) supplemented with 10% FBS (Lonza Cat. N°: 14-502F), 2mM L-Glut (Lonza Cat. N°: BE17-605E) and 100U/ml PEST (Lonza Cat. N°: DE17-605E) at a cell density of 1000-5000 cells/well (96 well plate). Cells were seeded at a density according to their exponential growth phase (normally 1000 to 5000/well). The cells were cultured at 37 °C in the dark in air containing 5% CO2. After 24h either vehicle (0.05% DMSO) or drug were added to culture medium at the indicated concentrations (10 to 0,01microM). After another 48 h, MTT (0.3 mg/ml) was added to cells, followed by incubation for 2-4h at 37 °C in the dark. The medium was then removed and the precipitated formazan was solubilized by the addition of DMSO (200 µL).
(§2) The optical density was measured at 595 nm with the iMark Microplate Reader (BioRad, USA). Data was expressed as percent growth above the level in controls and the results in figures were plotted as means ± SEM of each test point from 3 replicates.
(§3) Statistical analysis. The concentration of drug that provokes 50% reduction of cell viability (IC50) was determined by using non-linear regression analysis and data were fitted to a log concentration vs normalized response curve in GraphPad software v5 (San Diego, CA).

[2] = test system: DU-145; assay: MTT cell viability assay, DU-145 cells; format: cell-based; conditions: Homo sapiens, 48 h drug exposure
Method: DU-145 [American Type Culture Collection (ATCC) reference number HTB-81]. This a human prostate cancer cell line derived from a metastatic site (brain) of a person.
as §1, §2, §3

[3] = test system: MDA-MB-231; assay: MTT cell viability assay, MDA-MB-231 cells; format: cell-based, human; conditions: Homo sapiens, 48 h drug exposure
Method: MDA-MB-231 [American Type Culture Collection (ATCC) reference number HTB-26]. This a human breast cancer cell line derived from a metastatic site from a person.
as §1, §2, §3

[4] = test system: K562; assay: MTT cell viability assay, K562 cells; format: cell-based; conditions: Homo sapiens, 48 h drug exposure
Method: K562 [American Type Culture Collection (ATCC) reference number CCL-243]. This a human cancer cell line derived from the bone marrow of a person with CML.
as §1, §2, §3

[5] = test system: MCF-7; assay: MTT cell viability assay, MCF-7 cells; format: cell-based; conditions: Homo sapiens, MCF7, 48 h drug exposure
Method: as §1, §2, §3

[6] = test system: HEL 92.1.7; assay: MTT cell viability assay, HEL cells; format: cell-based; conditions: Homo sapiens, 48 h drug exposure
Method: HEL 92.1.7 [American Type Culture Collection (ATCC) reference number TIB-180]. This a human cancer cell line derived from the bone marrow of a person with erythroleukemia, which is a form of AML.
as §1, §2, §3

Compound | IC50 [1] | IC50 [2] | IC50 [3] | IC50 [4] | IC50 [5] | IC50 [6]
NS(=O)(=O)c1ccc(N2Cc3ccccc3OC3=C2C(=O)c2c(O)ccc(O)c2C3=O)cc1 [Compound 40, 4-(7,10-dihydroxy-6,11-dioxo-6,11-dihydrobenzo[f]naphtho[2,3-b][1,4]oxazepin-12(13H)-yl)benzenesulfonamide] | 0.63 µM | 6.13 µM | 1.96 µM | 0.59 µM | 2.52 µM | 0.21 µM
NC(=O)c1ccc(N2Cc3cc(Cl)ccc3OC3=C2C(=O)c2c(O)ccc(O)c2C3=O)cc1 [Compound 41] | 0.39 µM | 3.74 µM | 0.98 µM | 0.22 µM | 1.53 µM | 
O=C1C2=C(C(=O)c3c(O)ccc(O)c31)N(c1ccc(N3CCOCC3)nc1)Cc1ccccc1O2 [Compound 59] | 0.28 µM | 0.54 µM | 0.21 µM | 0.05 µM | 0.72 µM | 0.06 µM
CN1CCN(c2ccc(N3Cc4ccccc4OC4=C3C(=O)c3c(O)ccc(O)c3C4=O)cn2)CC1 [Compound 81, 7,10-dihydroxy-12-(6-(4-methylpiperazin-1-yl)pyridin-3-yl)-12,13-dihydrobenzo[f]naphtho[2,3-b][1,4]oxazepine-6,11-dione] | 0.26 µM | 0.82 µM | 0.32 µM | 0.02 µM | 0.91 µM | 0.05 µM

The next lines start with results.

IC50 [1] | IC50 [2] | IC50 [3] | IC50 [4] | IC50 [5] | Compound | IC50 [6]
5.6 µM | > 10 µM | 4.02 µM | 0.57 µM | 4.22 µM | N#Cc1ccc(N2Cc3ccccc3OC3=C2C(=O)c2ccccc2C3=O)cc1 [Compound 2, 4-(6,11-dioxo-6,11-dihydrobenzo[f]naphtho[2,3-b][1,4]oxazepin-12(13H)-yl)benzonitrile] | 0.35 µM
0.32 µM | 6.04 µM | 0.36 µM | 0.23 µM | 2.59 µM | N#Cc1ccc(N2Cc3ccccc3OC3=C2C(=O)c2c(O)ccc(O)c2C3=O)cc1 [Compound 8, 4-(7,10-dihydroxy-6,11-dioxobenzo[f]naphtho[2,3-b][1,4]oxazepin-12(6H,11H,13H)-yl)benzonitrile] | 0.1 µM
0.47 µM | 7.35 µM | 0.39 µM | 0.13 µM | 3.17 µM | COc1cccc2c1OC1=C(C(=O)c3c(O)ccc(O)c3C1=O)N(c1ccc(C#N)cc1)C2 [Compound 26] | 
0.38 µM | 3.41 µM | 0.19 µM | 0.07 µM | 1.28 µM | NC(=O)c1cccc(N2Cc3ccccc3OC3=C2C(=O)c2c(O)ccc(O)c2C3=O)c1 [Compound 54, 3-(7,10-dihydroxy-6,11-dioxo-6,11-dihydrobenzo[f]naphtho[2,3-b][1,4]oxazepin-12(13H)-yl)benzamide] | 0.09 µM
1.55 µM | 1.32 µM | 0.27 µM | 0.1 µM | 3 µM | CN(C)c1ccc(N2Cc3ccccc3OC3=C2C(=O)c2c(O)ccc(O)c2C3=O)cn1 [Compound 62, 12-(6-(dimethylamino)pyridin-3-yl)-7,10-dihydroxy-12,13-dihydrobenzo[f]naphtho[2,3-b][1,4]oxazepine-6,11-dione] | 0.07 µM
0.42 µM | 0.68 µM | 0.35 µM | 0.44 µM | 0.79 µM | CN(C)CCNc1ccc(N2Cc3ccccc3OC3=C2C(=O)c2c(O)ccc(O)c2C3=O)cn1 [Compound 97, 12-(6-((2-(dimethylamino)ethyl)amino)pyridin-3-yl)-7,10-dihydroxy-12,13-dihydrobenzo[f]naphtho[2,3-b][1,4]oxazepine-6,11-dione] | 
